Laboratory results: US7452997B2 (priority 2004, dated 2008)
Read-outs that look alike come from different tables or passages of the source.

How the values were obtained:
[1] = target: T1, human CB1 receptor (Homo sapiens, UniProt P21554); test: biochemical; type: binding
T1 construct: expressed in transfected cells; host or cells: SK-N-MC cells, stably transfected with pcDNA3 CB-1 (human); semi-purified membrane pellet
Summary of the method: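 Membranes from SK-N-MC cells stably expressing human CB1, incubated 90 minutes at 30° C in Tris-HCl buffer with MgCl2, EDTA and fatty acid free BSA, pH 7.5. Bound counts collected by filtration and scintillation counting; IC50 from linear regression over varying compound concentrations.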

[2] = target: T2, human CB2 receptor (Homo sapiens, UniProt P34972); test: Binding assay, cannabinoid CB2 receptor ([3H]-CP-55,940 displacement); details: Cannabinoid CB2 Receptor Binding IC50, human CB2 receptor, SK-N-MC cell membranes, radioligand CP-55,940 0.2 nM
Summary of the method: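 Membranes from SK-N-MC cells stably expressing human CB2, incubated with test compound and 0.2 nM [3H]-CP-55,940 for 90 min at 30 °C in Tris buffer pH 7.5 with fatty-acid-free BSA. Nonspecific binding defined with 10 uM WIN 55,212; filtration and scintillation counting, IC50 by linear regression.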

[3] = target: T1, human CB1 receptor; test: Functional cell-based assay, CB1 receptor mediated change in CRE β-gal expression (agonist / inverse agonist)
Source text: (§1) Functional Cell-Based Assay for CB1 or CB2 Agonist and Inverse Agonist Effects on Intra-Cellular Adenylate Cyclase Activity
(§2) The CB1 and CB2 receptors are G-protein coupled receptors (GPCR) which influence cell function via the Gi-protein. These receptors modulate the activity of intracellular adenylate cyclase which in turn produces the intracellular signal messenger cyclic-AMP (cAMP).
(§3) At baseline, or during non-ligand bound conditions, these receptors are constitutively active and tonically suppress adenylate cyclase activity. The binding of an agonists causes further receptor activation and produces additional suppression of adenylate cyclase activity. The binding of an inverse agonist inhibits the constitutive activity of the receptors and results in an increase in adenylate cyclase activity.
(§4) By monitoring intracellular adenylate cyclase activity, the ability of compounds to act as agonists or inverse agonists can be determined.
(§5) Test compounds were evaluated in SK-N-MC cells which, using standard transfection procedures, were stably transfected with human cDNA for pcDNA3-CRE β-gal and pcDNA3 CB1 receptor (human) or pcDNA3 CB2 receptor (human). By expressing CRE β-gal, the cells produced β-galactosidase in response to CRE promoter activation by cAMP. Cells expressing CRE β-gal and either the human CB1 or CB2 receptor will produce less β-galactosidase when treated with a CB1/CB2 agonist and will produce more β-galactosidase when treated with a CB1/CB2 inverse agonist.
(§6) The cells were grown in 96-well plates under standard cell culture conditions at 37° C. in a 5% CO2 atmosphere. After 3 days, the media was removed and a test compound in media (wherein the media was supplemented with 2 mM L-glutamine, […] sodium pyruvate, 0.1% low fatty acid FBS (fetal bovine serum) and antibiotics) was added to the cell. The plates were incubated for 30 minutes at 37° C. and the plate cells were then treated with forskolin over a 4-6 hour period, then washed and lysed. The β-galactosidase activity was quantitated using commercially available kit reagents (Promega Corp. Madison, Wis.) and a VMAX Plate Reader (Molecular Devices, Inc).
(§7) The change in β-galactosidase activity was determined by setting a vehicle treated cell's activity value at 100% and expressing the β-galactosidase activity measured in a corresponding compound treated cell as a percent of the vehicle treated cell activity.
(§8) The EC50 values for compounds tested were calculated by linear regression and were obtained from studies in which varying compound concentrations were used.

[4] = target: T2, human CB2 receptor; test: Functional cell-based assay, CB2 receptor mediated change in CRE β-gal expression (agonist / inverse agonist); details: SK-N-MC cells, forskolin
Source text: as §1, §2, §3, §4, §5, §6
For cells expressing CRE β-gal and the CB2 receptor, CB2 agonists reduced β-galactosidase activity in a dose-dependent manner and CB2 inverse agonists increased β-galactosidase activity in a dose-dependent manner.
as §7, §8

[5] = inverse agonist, read-out: CB2 Receptor Functional Inverse Agonist EC50

T2 sequence (P34972 whole entry): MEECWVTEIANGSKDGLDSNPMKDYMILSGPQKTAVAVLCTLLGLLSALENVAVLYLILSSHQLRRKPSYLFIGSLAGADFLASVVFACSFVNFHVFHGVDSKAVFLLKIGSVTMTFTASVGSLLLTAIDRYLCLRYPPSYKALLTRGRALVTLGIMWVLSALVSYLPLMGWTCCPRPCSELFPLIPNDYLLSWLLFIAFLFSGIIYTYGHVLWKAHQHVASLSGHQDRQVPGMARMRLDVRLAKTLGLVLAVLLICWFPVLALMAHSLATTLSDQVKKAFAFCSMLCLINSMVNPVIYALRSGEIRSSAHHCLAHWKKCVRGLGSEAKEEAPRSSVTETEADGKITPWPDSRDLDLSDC
T1 sequence (P21554 whole entry): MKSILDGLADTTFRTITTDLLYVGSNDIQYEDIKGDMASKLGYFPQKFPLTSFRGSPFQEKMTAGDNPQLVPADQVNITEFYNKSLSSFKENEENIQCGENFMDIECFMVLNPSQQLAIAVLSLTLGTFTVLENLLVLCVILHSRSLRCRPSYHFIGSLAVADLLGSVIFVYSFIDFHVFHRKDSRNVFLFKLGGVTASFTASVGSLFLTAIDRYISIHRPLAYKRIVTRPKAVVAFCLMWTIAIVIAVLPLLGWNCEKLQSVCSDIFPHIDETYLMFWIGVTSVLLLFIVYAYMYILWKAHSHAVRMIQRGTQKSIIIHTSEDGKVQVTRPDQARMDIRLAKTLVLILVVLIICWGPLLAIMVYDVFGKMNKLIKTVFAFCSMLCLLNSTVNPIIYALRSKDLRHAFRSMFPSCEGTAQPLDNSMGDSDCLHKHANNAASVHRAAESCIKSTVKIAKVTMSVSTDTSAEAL

Compound | IC50 [1] | IC50 [2] | EC50 [3] | EC50 ([4]; agonist, read-out: CB2 Receptor Functional Agonist EC50) | EC50 [4, 5]
CCOC(=O)C1C2CCC(C2)C1NC(=O)c1nn(C2CCCCC2)c2c1CCCC2 (centres unmarked) [compound 28] | 850 nM | 7.5 nM | 2030 nM | 330 nM | 
CCOC(=O)C1CCc2c(c(C(=O)NC3C4(C)CCC(C4)C3(C)C)nn2C2CCCCC2)C1 (centres unmarked) [compound 67] | 300 nM | 15.5 nM | 524 nM |  | 23 nM
CCOC(=O)C1CCc2c(C(=O)NC3C4(C)CCC(C4)C3(C)C)nn(C3CCCCC3)c2C1 (centres unmarked) [compound 70] | 125 nM | 16 nM | 1000 nM |  | 45.9 nM
CCOC(=O)[C@@H]1CCc2c(c(C(=O)NC3C4(C)CCC(C4)C3(C)C)nn2-c2ccccc2)C1 (some centres unmarked) [compound 220] |  | 230 nM | 399 nM |  | 220 nM
CCOC(=O)C1CCc2c(c(C(=O)NC3C4CC5CC(C4)CC3C5)nn2C2CCCCC2)C1 (centres unmarked) [compound 222] | 280 nM | 4.9 nM | 194 nM |  | 33 nM
CCOC(=O)C1CCc2c(c(C(=O)NC3C4CC5CC(C4)CC3C5)nn2Cc2ccccc2)C1 (centres unmarked) [compound 226] | 7.9 nM | 5.5 nM | 520 nM |  | 65 nM
CC12CCC(C1)C(C)(C)C2NC(=O)Nc1nn(Cc2ccccc2)c2c1CCCC2 (centres unmarked) [compound 338] | 1350 nM | 27 nM | 6 nM |  | 
